In patent US20260193163A1, “CRYSTAL FORM OF L-ARGININE (S)-2-(1-ACETOXY-N-PENTYL)BENZOATE, AND PREPARATION METHOD THEREFOR AND USE THEREOF” (JIANGSU KANION PHARMACEUTICAL CO., LTD., priority 2023, published 2026):

What was measured:
[1] = Intrinsic dissolution rate in SGF or FeSSIF; assay type: physicochemical; conditions: 37° C., 100 rpm, 5-120 min, HPLC
Description: Samples of crystal form I (25 mg each) were weighed, placed into intrinsic dissolution rate metal modules, and maintained at a pressure of 20 pounds for 30 s and then placed in 20 mL of SGF (Simulated Gastric Fluid) or FeSSIF (Fed-State Simulated Intestinal Fluid) physiological medium, respectively. The medium was maintained at 37° C. and a rotation speed at 100 rpm throughout the process. Then, at 5, 15, 30, 45, 60, 90, and 120 min, respectively, a 0.5 mL aliquot of the solution was taken and filtered through a 0.22 μm aqueous microfiltration membrane. And the volume was replenished with 0.5 mL of the corresponding physiological medium. The concentration was determined according to an HPLC content assay method.

[2] = Crystal form stability study (PXRD, DSC, TGA on day 0, 5, 10); assay type: physicochemical; conditions: 10 days
Description: Samples of crystal form I were subjected to physical stability tests under different storage conditions. The storage conditions were respectively: • (1) High temperature: 60° C. • (2) High humidity: RH 90%±5% • (3) Under light exposure: 4500 lx±500 lx, with the total illumination from the light source reaching 1.2×10^6 lux·hr PXRD, DSC, and TGA tests were performed on the samples on day 0, day 5, and day 10, respectively, to investigate the stability of the samples under high temperature, high humidity, and light exposure conditions. The experimental results are detailed in FIG. 8 to FIG. 16 of the description.

## CCCC[C@H](OC(C)=O)c1ccccc1C(=O)O [crystal form I, L-arginine (S)-2-(1-acetoxy-n-pentyl)benzoate]
[1]
  Dissolution rate compared with the solid obtained in Comparative Example 1: significantly higher
[2]; high humidity RH 90%±5%
  Change of powder diffraction pattern, DSC trace and TGA trace (physical stability, crystal form transformation): no significant difference
[2]; high temperature 60° C.
  Change of powder diffraction pattern, DSC trace and TGA trace (physical stability, crystal form transformation): no significant difference
[2]; light exposure 4500 lx±500 lx, total illumination 1.2×10^6 lux·hr
  Change of powder diffraction pattern, DSC trace and TGA trace (physical stability, crystal form transformation): no significant difference
